In brackets after ≈: the same amount, converted by molar mass.

The values that follow come from ChEMBL document CHEMBL1159249, “Malyngamide H, an ichthyotoxic amide possessing a new carbon skeleton from the Caribbean cyanobacterium Lyngbya majuscula” (J Nat Prod, 1995).

What all share (format): organism-based
The test system of one data set is Artemia. The experiment in a line: Toxicity in brine shrimp. The settings on record: in vivo.
Data set [1] in a line: Ichthyotoxicity in gold fish assessed as death after 1 hr. As to conditions: carassius auratus, in vivo; call rule not given here.
Another data set concerns Carassius auratus. The experiment in a line: Ichthyotoxicity in gold fish assessed as inability to swim after 1 hr.

As to `C=C(CCNC(=O)CC/C=C/C[C@H](CCCCCCC)OC)[C@@]12O[C@@H]1CC=C(C)C2=O` [MALYNGAMIDE H], the Activity entry in the data set on Artemia was “Not Active”. Also, in data set [1], the LC50 at 1 h worked out at 5 µg/mL (≈ 11.6 µM). For the same compound, the EC50 with Carassius auratus was determined as 2 µg/mL (≈ 4.63 µM).
